Where two headings read alike, the source gives them in different places.
Biological target: T1, P2Y12 receptor (Homo sapiens, UniProt Q9H244)
T1 construct: expressed in transfected cells; host or cells: CHO cells (membranes)
Assay: Functional inhibition of 2-Me-S-ADP induced P2Y12 signalling (35S-GTPγS binding, membranes from P2Y12 transfected CHO-cells)
Format: biochemical
Conditions: EC80 agonist, CHO-cell membranes
Procedure: Functional inhibition of-the P2Y12 receptor can be measured by in vitro assays using cell membranes from P2Y12 transfected CHO-cells, the methodology is indicated below. […] The reaction was allowed to proceed at 30° C. for 45 min. Samples were then transferred on to GF/B filters using a cell harvester and washed with wash buffer (50 mM Tris (pH 7.4), 5 mM MgCl2, 50 mM NaCl). Filters were then covered with scintilant and counted for the amount of ^35S-GTPγS retained by the filter. Maximum activity was that determined in the presence of the agonist and minimum activity in the absence of the agonist following subtraction of the value determined for non-specific activity. The effect of compounds at various concentrations was plotted according to the equation […]))) and IC50 estimated where A is the bottom plateau of the curve i.e. the final minimum y value B is the top of the plateau of the curve i.e. the final maximum y value C is the x value at the middle of the curve. […] Y is the original known y values. […] The reaction was allowed to proceed at 30° C. for 45 min. Samples were then transferred on to GF/B filters using a cell harvester and washed with wash buffer (50 mM Tris (pH 7.4), 5 mM MgCl2, 50 mM NaCl). Filters were then covered with scintilant and counted for the amount of ^35S-GTPγS retained by the filter. Maximum activity was that determined in the presence of the agonist and minimum activity in the absence of the agonist following subtraction of the value determined for non-specific activity. The effect of compounds at various concentrations was plotted according to the equation […]))) and IC50 estimated where A is the bottom plateau of the curve i.e. the final minimum y value B is the top of the plateau of the curve i.e. the final maximum y value C is the x value at the middle of the curve. […] Y is the original known y values.

[1] = value given in each example, read-out: GTPγS(IC50 μM)

T1 sequence (Q9H244 whole entry): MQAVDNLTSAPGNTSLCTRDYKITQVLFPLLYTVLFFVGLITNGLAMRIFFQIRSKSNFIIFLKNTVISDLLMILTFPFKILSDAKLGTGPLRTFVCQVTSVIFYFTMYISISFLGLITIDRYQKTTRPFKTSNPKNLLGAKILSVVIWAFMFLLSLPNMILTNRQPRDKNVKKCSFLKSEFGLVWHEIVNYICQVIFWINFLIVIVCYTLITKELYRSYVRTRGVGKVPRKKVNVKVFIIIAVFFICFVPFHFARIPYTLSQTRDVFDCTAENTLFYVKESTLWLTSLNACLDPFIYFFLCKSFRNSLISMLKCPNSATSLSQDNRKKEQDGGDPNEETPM

| Compound | IC50 [1] | IC50 (read-out: IC50) |
| --- | --- | --- |
| Cc1nc(N2CCC(C(=O)NS(=O)(=O)Cc3ccc(F)cc3)CC2)c(C#N)cc1C(=O)OCC(F)(F)F [Example 3, 2,2,2-Trifluoroethyl 5-cyano-6-(4-{[(4-fluorobenzyl)sulfonyl]carbamoyl}piperidin-1-yl)-2-methylnicotinate] | 0.024 µM |  |
| CCOC(=O)c1cc(C#N)c(N2CC(C(=O)NS(=O)(=O)Cc3c(F)cccc3F)C2)nc1CC [Example 9, Ethyl 5-cyano-6-(3-{[(2,6-difluorobenzyl)sulfonyl]carbamoyl}azetidin-1-yl)-2-ethylnicotinate] | 0.046 µM |  |
| CCOC(=O)c1cc(C#N)c(N2CC(C(=O)NS(=O)(=O)Cc3ccc(F)c(C)c3)C2)nc1CC [Example 10, Ethyl 5-cyano-2-ethyl-6-(3-{[(4-fluoro-3-methylbenzyl)sulfonyl]carbamoyl}azetidin-1-yl)nicotinate] | 0.064 µM |  |
| CCOC(=O)c1cc(C#N)c(N2CC(C(=O)NS(=O)(=O)Cc3ccc(F)cc3Cl)C2)nc1CC [Example 11, Ethyl 6-(3-{[(2-chloro-4-fluorobenzyl)sulfonyl]carbamoyl}azetidin-1-yl)-5-cyano-2-ethylnicotinate] | 0.036 µM |  |
| CCOC(=O)c1cc(C#N)c(N2CCC(C(=O)NS(=O)(=O)Cc3c(F)ccc(F)c3F)CC2)nc1C [Example 13, ethyl 5-cyano-2-methyl-6-(4-{[(2,3,6-trifluorobenzyl)sulfonyl]carbamoyl}piperidin-1-yl)nicotinate] | 0.071 µM |  |
| CCOC(=O)c1cc(C#N)c(N2CCC(C(=O)NS(=O)(=O)Cc3c(F)cccc3F)CC2)nc1CC [Example 15, Ethyl 5-cyano-6-(4-{[(2,6-difluorobenzyl)sulfonyl]carbamoyl}piperidin-1-yl)-2-ethylnicotinate] | 0.048 µM |  |
| CCOC(=O)c1cc(C#N)c(N2CCC(C(=O)NS(=O)(=O)Cc3ccc(F)cc3Cl)CC2)nc1CC [Example 16, Ethyl 6-(4-{[(2-chloro-4-fluorobenzyl)sulfonyl]carbamoyl}piperidin-1-yl)-5-cyano-2-ethylnicotinate] | 0.211 µM |  |
| CCOC(=O)c1cc(C#N)c(N2CCC(C(=O)NS(=O)(=O)Cc3c(F)ccc(F)c3F)CC2)nc1CC [Example 17, Ethyl 5-cyano-2-ethyl-6-(4-{[(2,3,6-trifluorobenzyl)sulfonyl]carbamoyl}piperidin-1-yl)nicotinate] | 0.097 µM |  |
| CCOC(=O)c1cc(C#N)c(N2CCC(C(=O)NS(=O)(=O)Cc3ccc(F)cc3F)CC2)nc1CC [Example 18, Ethyl 5-cyano-6-(4-{[(2,4-difluorobenzyl)sulfonyl]carbamoyl}piperidin-1-yl)-2-ethylnicotinate] | 0.02 µM |  |
| CCOC(=O)c1cc(C#N)c(N2CC(C(=O)NS(=O)(=O)Cc3ccc(F)cc3F)C2)nc1CC [Example 21, Ethyl 5-cyano-6-(3-{[(2,4-difluorobenzyl)sulfonyl]carbamoyl}azetidin-1-yl)-2-ethylnicotinate] | 0.03 µM |  |
| CCOC(=O)c1cc(C#N)c(N2CC(C(=O)NS(=O)(=O)Cc3ccc(F)cc3)C2)nc1CC [Example 22, Ethyl 5-cyano-2-ethyl-6-(3-{[(4-fluorobenzyl)sulfonyl]carbamoyl}azetidin-1-yl)nicotinate] | 0.041 µM |  |
| CCOC(=O)c1cc(C#N)c(N2CC(C(=O)NS(=O)(=O)Cc3ccc(Cl)cc3)C2)nc1CC [Example 23, Ethyl 6-(3-{[(4-chlorobenzyl)sulfonyl]carbamoyl}azetidin-1-yl)-5-cyano-2-ethylnicotinate] | 0.022 µM |  |
| CCOC(=O)c1cc(C#N)c(N2CCC(C(=O)NS(=O)(=O)Cc3ccc(F)cc3)CC2)nc1CC [Example 24, Ethyl 5-cyano-2-ethyl-6-(4-{[(4-fluorobenzyl)sulfonyl]carbamoyl}piperidin-1-yl)nicotinate] | 0.036 µM |  |
| CCOC(=O)c1cc(C#N)c(N2CCC(C(=O)NS(=O)(=O)Cc3ccc(Cl)cc3)CC2)nc1CC [Example 25, Ethyl 6-(4-{[(4-chlorobenzyl)sulfonyl]carbamoyl}piperidin-1-yl)-5-cyano-2-ethylnicotinate] | 0.04 µM |  |
| Ethyl 6-(4-{[(4-chloro-2-fluorobenzyl)sulfonyl]carbamoyl}piperidin-1-yl)-5-cyano-2-ethylnicotinate [Example 19] | 0.01 µM |  |

Next, values leading:

| IC50 [1] | IC50 (read-out: IC50) | Compound |
| --- | --- | --- |
| 0.143 µM |  | CCOC(=O)c1cc(C#N)c(N2CCC(CC(=O)NS(=O)(=O)Cc3ccccc3)C2)nc1C (stereo not shown) [Example 1, Ethyl 6-(3-{2-[(benzylsulfonyl)amino]-2-oxoethyl}pyrrolidin-1-yl)-5-cyano-2-methylnicotinate] |
| 0.12 µM |  | CCOC(=O)c1cc(C#N)c(N2CCC(CC(=O)NS(=O)(=O)CCc3ccccc3)C2)nc1C (stereo not shown) [Example 2, Ethyl 5-cyano-2-methyl-6-[3-(2-oxo-2-{[(2-phenylethyl)sulfonyl]amino}ethyl)pyrrolidin-1-yl]nicotinate] |
| 0.018 µM |  | CCOC(=O)c1cc(C#N)c(N2CC(C(=O)NS(=O)(=O)Cc3cc(C)ccc3F)C2)nc1C [Example 4, Ethyl 5-cyano-6-(3-{[(2-fluoro-5-methylbenzyl)sulfonyl]carbamoyl}azetidin-1-yl)-2-methylnicotinate] |
| 0.067 µM | 0.07 µM | CCOC(=O)c1cc(C#N)c(N2CCC(C(=O)NS(=O)(=O)Cc3ccccc3)C(C)C2)nc1C (stereo not shown) [Example 5, Ethyl 6-{4-[(benzylsulfonyl)carbamoyl]-3-methylpiperidin-1-yl}-5-cyano-2-methylnicotinate] |
| 0.044 µM |  | CCOC(=O)c1cc(C#N)c(N2CCC(C(=O)NS(=O)(=O)Cc3ccccc3)CC2)nc1NC [Example 6, Ethyl 6-{4-[(benzylsulfonyl)carbamoyl]piperidin-1-yl}-5-cyano-2-(methylamino)nicotinate] |
| 0.035 µM |  | CCOC(=O)c1cc(C#N)c(N2CCC(C(=O)NS(=O)(=O)Cc3cc(C)ccc3F)CC2)nc1C [Example 7, Ethyl 5-cyano-6-(4-{[(2-fluoro-5-methylbenzyl)sulfonyl]carbamoyl}piperidin-1-yl)-2-methylnicotinate] |
| 0.074 µM |  | CCOC(=O)c1cc(C#N)c(N2CCC(C(=O)NS(=O)(=O)Cc3cccc(OC)c3)CC2)nc1C [Example 8, Ethyl 5-cyano-6-(4-{[(3-methoxybenzyl)sulfonyl]carbamoyl}piperidin-1-yl)-2-methylnicotinate] |
| 0.49 µM |  | CCOC(=O)c1cc(C#N)c(N2CCC(C(=O)NS(=O)(=O)Cc3cc(F)ccc3C)CC2)nc1C [Example 12, Ethyl 5-cyano-6-(4-{[(5-fluoro-2-methylbenzyl)sulfonyl]carbamoyl}piperidin-1-yl)-2-methylnicotinate] |
| 0.016 µM |  | CCOC(=O)c1cc(C#N)c(N2CCC(C(=O)NS(=O)(=O)Cc3ccc(F)cc3F)CC2)nc1C [Example 14, Ethyl 5-cyano-6-(4-{[(2,4-difluorobenzyl)sulfonyl]carbamoyl}piperidin-1-yl)-2-methylnicotinate] |
| 0.035 µM |  | CCOC(=O)c1cc(C#N)c(N2CC(C(=O)NS(=O)(=O)Cc3ccc(F)cc3F)C2)nc1C [Example 20, Ethyl 5-cyano-6-(3-{[(2,4-difluorobenzyl)sulfonyl]carbamoyl}azetidin-1-yl)-2-methylnicotinate] |
| 0.035 µM |  | CCOC(=O)c1cc(C#N)c(N2CC(C(=O)NS(=O)(=O)Cc3ccccc3F)C2)nc1C [Example 26, Ethyl 5-cyano-6-(3-{[(2-fluorobenzyl)sulfonyl]carbamoyl}azetidin-1-yl)-2-methylnicotinate] |
| 0.026 µM |  | CCOC(=O)c1cc(C#N)c(N2CCC(C(=O)NS(=O)(=O)Cc3ccccc3F)CC2)nc1C [Example 27, Ethyl 5-cyano-6-(4-{[(2-fluorobenzyl)sulfonyl]carbamoyl}piperidin-1-yl)-2-methylnicotinate] |
| 0.442 µM |  | CCOC(=O)c1cc(C#N)c(N2CCC(C(=O)NS(=O)(=O)Cc3ccccc3)C(CCC(=O)OCc3ccccc3)C2)nc1C (stereo not shown) [Example 28, Ethyl 6-{3-[3-(benzyloxy)-3-oxopropyl]-4-[(benzylsulfonyl)carbamoyl]piperidin-1-yl}-5-cyano-2-methylnicotinate] |
| 0.382 µM |  | CCOC(=O)c1cc(C#N)c(N2CCC(C(=O)NS(=O)(=O)Cc3ccc(F)cc3F)C(CCC(=O)OCc3ccccc3)C2)nc1C (stereo not shown) [Example 29, Ethyl 6-(3-[3-(benzyloxy)-3-oxopropyl]-4-{[(2,4-difluorobenzyl)sulfonyl]carbamoyl}piperidin-1-yl)-5-cyano-2-methylnicotinate] |
| 0.057 µM |  | CCOC(=O)c1cc(C#N)c(N2CCC(C(=O)NS(=O)(=O)Cc3ccccc3)C(CCC(=O)O)C2)nc1C (stereo not shown) [Example 30, 3-{4-[(Benzylsulfonyl)carbamoyl]-1-[3-cyano-5-(ethoxycarbonyl)-6-methylpyridin-2-yl]piperidin-3-yl}propanoic Acid] |
